Assay results taken from patent US6656911B2, “Serine protease inhibitors” (Cortech, Inc., priority 1994, dated 2003).
Each block holds one compound with its values, some of them ahead of it.

Tests used:
[1] = molecular target: T1, elastase derived from human sputum (HSE) (Homo sapiens, UniProt P08246); test: In vitro inhibition of elastase (ONO-PO series); type: biochemical; settings: substrate N-methoxysuccinyl-Ala-Ala-Pro-Val-p-nitroaniline, 37° C., pH 8.0, IC50 converted to Ki by Dixson plot
T1 construct: prepared from commercially available HSE (875 U/mg protein, SE-563, Elastin Product Co., Inc., Missouri, USA); purchased Elastin Product Co., Inc., Missouri, USA SE-563; host or cells: human sputum (natural enzyme)
T1 sequence (P08246 30-247 limits assumed): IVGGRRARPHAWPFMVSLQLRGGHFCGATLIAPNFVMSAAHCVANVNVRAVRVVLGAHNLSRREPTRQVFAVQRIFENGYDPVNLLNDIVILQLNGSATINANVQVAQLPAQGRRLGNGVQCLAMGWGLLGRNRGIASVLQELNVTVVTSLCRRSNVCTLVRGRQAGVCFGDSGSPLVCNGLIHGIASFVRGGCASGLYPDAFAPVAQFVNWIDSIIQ

[2] = molecular target: T2, human neutrophil elastase (HNE) (Homo sapiens, UniProt P08246); test: HNE Ki of CE compounds, tested as described in WO 96/16080; type: biochemical; settings: read-out: HNE Ki
T2 sequence (P08246 30-267): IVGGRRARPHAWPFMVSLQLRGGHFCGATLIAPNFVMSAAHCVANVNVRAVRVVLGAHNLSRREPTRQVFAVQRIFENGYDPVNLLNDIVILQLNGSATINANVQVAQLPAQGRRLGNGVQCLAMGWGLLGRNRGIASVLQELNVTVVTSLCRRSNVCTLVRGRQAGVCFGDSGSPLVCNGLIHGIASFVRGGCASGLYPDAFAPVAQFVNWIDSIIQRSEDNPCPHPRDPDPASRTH

[3] = system: polymorphoneucleocyte (PMN); test: Extracellular Matrix (ECM) degradation assay; type: cell-based; settings: PMN's stimulated with opsonized zymosan, 4 hr at 37° C.
How it was run: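 Radiolabelled ([35S]sulfate/[3H]proline) ECM from R22 rat smooth muscle cells preincubated 30 min with 1 or 5 uM inhibitor in HBSS (<2% DMSO). PMNs (5×10^5/well) stimulated with serum-opsonized zymosan (10 particles/PMN), 4 h at 37 °C. Degradation = released over total ECM counts, minus PMN-free basal release.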

[4] = Blood level screening after oral dose; type: in vivo, Sprague-Dawley rats; settings: rat, oral gavage 10 mg/kg; for concentration at 3 h: read-out: Plasma Levels (μM) 3 hr
How it was run: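 Unfasted male Sprague-Dawley rats received 10 mg/kg by oral gavage in PEG, PEG-400 or PEG:H2O:EtOH. Plasma was solvent-extracted and the inhibitor measured by HPLC or LC/MS.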

[5] = male, Sprague-Dawley, plasma, 3 hr

Structure (SMILES): CC(C)[C@H](NC(=O)Cn1c(-c2ccc(F)cc2)ncc(NC(=O)OCc2ccccc2)c1=O)C(=O)c1nnc(C(C)(C)C)o1 [ONO-PO-698, 2-[5-(Benzyloxycarbonyl)amino-6-oxo-2-(4-fluorophenyl)-1,6-dihydro-1-pyrimidinyl]-N-[1-(2-[5-tert-butyl-1,3,4-oxadiazolyl]carbonyl)-2-(S)-methylpropyl]acetamide]
Ki [1]: 0.77 nM

Structure (SMILES): CC(C)[C@H](NC(=O)CN1C(=O)N[C@H](C(C)C)C1=O)C(=O)c1nnc(C(C)(C)c2ccccc2)o1 [ONO-PO-720, 4-(R)-Isopropyl-2,5-imidazolidinedione-N-[1-(2-[5-(α,α-dimethylbenzyl)-1,3,4-oxadiazolyl]carbonyl)-2-(S)-methylpropyl]acetamide]
Ki [1]: 25.9 nM

Structure (SMILES): CC(C)[C@H](NC(=O)Cn1c(-c2ccc(F)cc2)ncc(NC(=O)OCc2ccccc2)c1=O)C(=O)c1nnc(-c2ccccc2)o1 [ONO-PO-697, 2-[5-(Benzyloxycarbonyl)amino-6-oxo-2-(4-fluorophenyl)-1,6-dihydro-1-pyrimidinyl]-N-[1-(2-[5-phenyl-1,3,4-oxadiazolyl]carbonyl)-2-(S)-methylpropyl]acetamide]
Ki [1]: 27.3 nM

Structure (SMILES): CC(C)[C@H](NC(=O)CN1C(=O)N[C@H](Cc2c[nH]c3ccccc23)C1=O)C(=O)c1nnc(C(C)(C)c2ccccc2)o1 [ONO-PO-724, 4-(R)-(3-Indolemethylene)-2,5-imidazolidinedione-N-[1-(2-[5-(α,α-dimethylbenzyl)-1,3,4-oxadiazolyl]carbonyl)-2-(S)-methylpropyl]acetamide]
Ki [1]: 14.4 nM

Structure (SMILES): CC(C)[C@H](NC(=O)Cn1c(-c2ccccc2)ncc(N)c1=O)C(=O)c1nnc(C(C)(C)c2ccccc2)o1 [ONO-PO-711, 2-[5-Amino-6-oxo-2-phenyl-1,6-dihydro-1-pyrimidinyl]-N-[1-(2-[5-(α,α-dimethylbenzyl)-1,3,4-oxadiazolyl]carbonyl)-2-(S)-methylpropyl]acetamide]
Ki [1]: 2.55 nM

Structure (SMILES): CC(C)c1nnc(C(=O)[C@@H](NC(=O)Cn2c(-c3ccc(F)cc3)ncc(N)c2=O)C(C)C)o1 [ONO-PO-705, 2-[5-Amino-6-oxo-2-(4-fluorophenyl)-1,6-dihydro-1-pyrimidinyl]-N-[1-(2-[5-isopropyl-1,3,4-oxadiazolyl]carbonyl)-2-(S)-methylpropyl]acetamide]
Ki [1]: 10.7 nM

Structure (SMILES): CC(C)[C@H](NC(=O)CN1C(=O)N[C@H](C(C)C)C1=O)C(=O)c1nnc(C(C)(C)C)o1 [ONO-PO-719, 4-(R)-Isopropyl-2,5-imidazolidinedione-N-[1-(2-[5-tert-butyl-1,3,4-oxadiazolyl]carbonyl)-2-(S)-methylpropyl]acetamide]
Ki [1]: 836 nM

Structure (SMILES): CC(C)[C@H](NC(=O)Cn1c(-c2cccnc2)ncc(N)c1=O)C(=O)c1nnc(C(C)(C)c2ccccc2)o1 [ONO-PO-715, 2-[5-Amino-6-oxo-2-(3-pyridyl)-1,6-dihydro-1-pyrimidinyl]-N-[1-(2-[5-(α,α-dimethylbenzyl)-1,3,4-oxadiazolyl]carbonyl)-2-(S)-methylpropyl]acetamide]
Ki [1]: 3.54 nM

Structure (SMILES): Cc1cccc(Cc2nnc(C(=O)[C@@H](NC(=O)CN3C(=O)N[C@H](CC(C)C)C3=O)C(C)C)o2)c1 [CE2246, 4-(R)-(2-Isobutyl)-2,5-imidazolidinedione-N-[1-(2-[5-(3-methylbenzyl)-1,3,4-oxadiazolyl]carbonyl)-2-(S)-methylpropyl]acetamide]
Ki [2]: 18.5 nM
ECM DATA % Inhibition 1 uM ([3]; 1 uM inhibitor): −2.3%
ECM DATA % Inhibition 5 uM ([3]; 5 uM inhibitor): 32.6%
Plasma Levels (μM) 1 hr ([4]; 1 hr): 1.182 µM
Plasma Levels (μM) 3 hr ([4]; 3 hr): 0.837 µM
Plasma Levels (μM) 6 hr ([4]; 6 hr): 0.496 µM

Structure (SMILES): Cc1cccc(Cc2nnc(C(=O)[C@@H](NC(=O)CN3C(=O)CN=C(c4ccccc4)c4ccccc43)C(C)C)o2)c1 [CE2157]
Ki [2]: 1.4 nM
inhibition at 1 µM ([3]; 1 uM inhibitor): 9.96%
inhibition at 5 µM ([3]; 5 uM inhibitor): 13.4%
concentration at 3 h [4, 5]: 3.81 µM

Structure (SMILES): CC(C)[C@H](NC(=O)[C@@H]1CCCN1C(=O)[C@@H](NC(=O)OCc1ccccc1)C(C)C)C(=O)c1nnc(Cc2ccc(N(C)C)cc2)o1 [CE2100, (Benzyloxycarbonyl)-L-valyl-N-[1-(2-[5-(4-Dimethylaminobenzyl)-1,3,4-oxadiazolyl]carbonyl)-2-(S)-methylpropyl]-L-prolinamide]
Ki [2]: 0.069 nM
inhibition at 1 µM ([3]; 1 uM inhibitor): 57.6%
inhibition at 5 µM ([3]; 5 uM inhibitor): 56.6%
concentration at 3 h [4, 5]: 0.064 µM

Structure (SMILES): Cc1cccc(Cc2nnc(C(=O)C(NC(=O)CN3C(=O)C(c4ccccc4)N(C)C3=O)C(C)C)o2)c1 [CE2179, 5-(R,S)-Phenyl-1-methyl-2,4-imidazolidinedione-N-[1-(2-[5-(3-methylbenzyl)-1,3,4-oxadiazolyl]carbonyl)-2-(S)-methylpropyl]acetamide]
Ki [2]: 7.6 nM
inhibition at 1 µM ([3]; 1 uM inhibitor): 48.8%
inhibition at 5 µM ([3]; 5 uM inhibitor): 45.9%
concentration at 1 h ([4]; male, Sprague-Dawley, plasma, 1 hr, read-out: Plasma Levels (μM) 1 hr): 1.23 µM
concentration at 3 h [4, 5]: 0.599 µM

Further compounds by falling Ki [1], results first:

Ki [1]: 4280 nM
Structure (SMILES): CC(C)[C@H](NC(=O)Cn1c(-c2ccccc2)cccc1=O)C(=O)c1nnc(C(C)(C)C)o1 [ONO-PO-725, 2-[6-Oxo-2-phenyl-1,6-dihydro-1-pyridinyl]-N-[1-(2-[5-tert-butyl-1,3,4-oxadiazolyl]carbonyl)-2-(S)-methylpropyl]acetamide]

Ki [1]: 730 nM
Structure (SMILES): CC(C)C[C@@H]1NC(=O)N(CC(=O)N[C@H](C(=O)c2nnc(C(C)(C)C)o2)C(C)C)C1=O [ONO-PO-708, 4-(S)-(2-Isobutyl)-2,5-imidazolidinedione-N-[1-(2-[5-tert-butyl-1,3,4-oxadiazolyl]carbonyl)-2-(S)-methylpropyl]acetamide]

Ki [1]: 590 nM
Structure (SMILES): CC(C)[C@H](NC(=O)Cn1c(-c2ccccc2)cccc1=O)C(=O)c1nnc(C(C)(C)c2ccccc2)o1 [ONO-PO-726, 2-[6-Oxo-2-phenyl-1,6-dihydro-1-pyridinyl]-N-[1-(2-[5-(α,α-dimethylbenzyl)-1,3,4-oxadiazolyl]carbonyl)-2-(S)-methylpropyl]acetamide]

Ki [1]: 43.8 nM
Structure (SMILES): CC(C)[C@H](NC(=O)Cn1c(-c2ccc(F)cc2)nccc1=O)C(=O)c1nnc(C2(C)CC2)o1 [ONO-PO-734, 2-[6-Oxo-2-(4-fluorophenyl)-1,6-dihydro-1-pyrimidinyl]-N-[1-(2-[5-(1-methylcyclopropyl)-1,3,4-oxadiazolyl]carbonyl)-2-(S)-methylpropyl]acetamide]

Ki [1]: 25.7 nM
Structure (SMILES): CC(C)C[C@@H]1NC(=O)N(CC(=O)N[C@H](C(=O)c2nnc(C(C)(C)c3ccccc3)o2)C(C)C)C1=O [ONO-PO-709, 4-(S)-(2-Isobutyl)-2,5-imidazolidinedione-N-[1-(2-[5-(α,α-dimethylbenzyl)-1,3,4-oxadiazolyl]carbonyl)-2-(S)-methylpropyl]acetamide]

Ki [1]: 6.76 nM
Structure (SMILES): CCCCc1nnc(C(=O)[C@@H](NC(=O)Cn2c(-c3ccc(F)cc3)ncc(N)c2=O)C(C)C)o1 [ONO-PO-706, 2-[5-Amino-6-oxo-2-(4-fluorophenyl)-1,6-dihydro-1-pyrimidinyl]-N-[1-(2-[5-butyl-1,3,4-oxadiazolyl]carbonyl)-2-(S)-methylpropyl]acetamide]

Ki [1]: 4.02 nM
Structure (SMILES): CC(C)[C@H](NC(=O)Cn1c(-c2ccccc2)nccc1=O)C(=O)c1nnc(C(C)(C)c2ccccc2)o1 [ONO-PO-731, 2-[6-Oxo-2-phenyl-1,6-dihydro-1-pyrimidinyl]-N-[1-(2-[5-α,α-dimethylbenzyl-1,3,4-oxadiazolyl]carbonyl)-2-(S)-methylpropyl]acetamide]

Ki [1]: 2.98 nM
Structure (SMILES): CC(C)[C@H](NC(=O)Cn1c(-c2ccc(F)cc2)ncc(N)c1=O)C(=O)c1nnc(C(C)(C)c2ccc(O)c(O)c2)o1 [ONO-PO-701, 2-[5-Amino-6-oxo-2-(4-fluorophenyl)-1,6-dihydro-1-pyrimidinyl]-N-[1-(2-[5-(α,α-dimethyl-3,4-dihydroxybenzyl)-1,3,4-oxadiazolyl]carbonyl)-2-(S)-methylpropyl]acetamide]

Ki [1]: 2.39 nM
Structure (SMILES): CC(C)[C@H](NC(=O)[C@@H]1CCCN1C(=O)[C@@H](NS(C)(=O)=O)C(C)C)C(=O)c1nnc(C(C)(C)c2ccccc2)o1 [ONO-PO-710, Methylsulfonyl-L-valyl-N-[1-(2-[5-(α,α-dimethylbenzyl)-1,3,4-oxadiazolyl]carbonyl)-2-(S)-methylpropyl]-L-prolinamide]

Ki [1]: 2.25 nM
Structure (SMILES): CC(C)[C@H](NC(=O)Cn1c(-c2ccc(F)cc2)ncc(N)c1=O)C(=O)c1nnc(Cc2ccccc2)o1 [ONO-PO-703, 2-[5-Amino-6-oxo-2-(4-fluorophenyl)-1,6-dihydro-1-pyrimidinyl]-N-[1-(2-[5-benzyl-1,3,4-oxadiazolyl]carbonyl)-2-(S)-methylpropyl]acetamide]
